Assay results published in patent US12090204B2, “Photodynamic therapy compositions and methods of use thereof” (Pinnacle Biologics, Inc., priority 2020, dated 2024).

Experiments:
P. anaerobius (+) = assay: porfimer sodium aPDT, planktonic culture; format: cell-based, Peptostreptococcus anaerobius; settings: 630 nm, kill at 75 J/cm2 (light dose 50-100 J/cm2), porfimer sodium 150 μg/mL
Experimental: (§1) Bacteria were routinely cultured using tryptic soy broth or agar at 37° C. in a 5% CO2 incubator. Bacteria were isolated and suspended with 0.9% NaCl to an Optical Density (OD) of 0.1 taken at 630 nm, to generate the inoculum used for either planktonic or biofilm assays.
(§2) Experiments using planktonic cultures were carried out using M. catarrhalis, as a standard for further comparisons and to determine the effective drug concentration, porfimer sodium incubation time and light dose parameters which would provide an effective cell kill at the level of 5-7 logs. Once determined the experiments were repeated for all other bacterial strains examined.
(§3) The colony forming units (CFU) per mL of the starting inoculum for every experiment was determined by dilution plating. […]
(§4) Bacteria were exposed to 630 nm laser light via a fiber optic with a lens affixed to the distal end to provide a uniform diverging light field. […] Power output of the laser was measured using a UDT/Gamma Scientific 371 optical power meter and an integrating sphere. […]
(§5) Biofilms were formed on glass coupons in culture dishes containing a bacterial inoculum for 48 hours under conditions specific to the strain. […] Power output of the laser was measured using a UDT/Gamma Scientific 371 optical power meter and an integrating sphere. […]

P. gingivalis (−) = assay: porfimer sodium aPDT, planktonic culture; format: cell-based, Porphyromonas gingivalis; settings: 630 nm, kill at 75 J/cm2 (light dose 50-100 J/cm2), porfimer sodium 150 μg/mL
Experimental: as §1, §2, §3, §4, §5

B. atrophaeus (+) = assay: porfimer sodium aPDT, planktonic culture; format: cell-based, Bacillus atrophaeus; settings: 630 nm, 200 J/cm2, porfimer sodium 125 μg/mL
Experimental: as §1, §2, §3, §4, §5

S. enterica (−) = assay: porfimer sodium aPDT, planktonic culture; format: cell-based, Salmonella enterica; settings: 630 nm, 200 J/cm2, porfimer sodium 125 μg/mL
Experimental: as §1, §2, §3, §4, §5

E. coli (−) = assay: porfimer sodium aPDT, planktonic culture; format: cell-based, Escherichia coli; settings: 630 nm, 200 J/cm2, porfimer sodium 125 μg/mL
Experimental: as §1, §2, §3, §4, §5

Y. intermedia (−) = assay: porfimer sodium aPDT, planktonic culture; format: cell-based, Yersinia intermedia; settings: 630 nm, 200 J/cm2, porfimer sodium 125 μg/mL
Experimental: as §1, §2, §3, §4, §5

H. influenza (−) = assay: porfimer sodium aPDT, planktonic culture; format: cell-based, Haemophilus influenza; settings: 630 nm, 200 J/cm2, porfimer sodium 125 μg/mL
Experimental: as §1, §2, §3, §4, §5

S. Mutans (+) = assay: porfimer sodium aPDT, planktonic culture; format: cell-based, Streptococcus Mutans; settings: 630 nm, 200 J/cm2, porfimer sodium 125 μg/mL
Experimental: as §1, §2, §3, §4, §5

M. catarrhalis (−) = assay: porfimer sodium aPDT, 48 hour biofilm culture; format: cell-based, Moraxella catarrhalis; settings: 630 nm, kill at 75 J/cm2 (light dose 75-100 J/cm2), porfimer sodium 250 μg/mL
Experimental: as §1
(§6) The colony forming units (CFU) per mL of the starting inoculum for every experiment was determined by dilution plating. Control samples were exposed to laser at 630 nm in the absence of porfimer sodium, porfimer sodium in the absence of laser exposure, or in saline alone in the absence of porfimer sodium and 630 nm laser light. All experimental samples were dilution plated to enumerate viable CFU's. Three independent replicates were performed for each reaction condition per strain per assay. […]
as §4, §5

F. nucleatum (−) = assay: porfimer sodium aPDT, 48 hour biofilm culture; format: cell-based, Fusobacterium nucleatum; settings: 630 nm, kill at 100 J/cm2 (light dose 75-100 J/cm2), porfimer sodium 250 μg/mL
Experimental: as §1, §6, §4, §5

Q: For porfimer sodium, which Rate of kill (P. anaerobius (+)) is on record?
A: 5Log

Q: And the Rate of kill (P. gingivalis (−))?
A: 7Log

Q: What about the Rate of kill (B. atrophaeus (+)) of the same substance?
A: 6Log

Q: What about the Rate of kill (S. enterica (−)) of the same substance?
A: 6Log

Q: What about the Rate of kill (E. coli (−)) of the same substance?
A: <1Log

Q: What about the Rate of kill (Y. intermedia (−)) of the same substance?
A: 7Log

Q: And the Rate of kill (H. influenza (−))?
A: 4Log

Q: What about the Rate of kill (S. Mutans (+)) of the same substance?
A: >7Log

Q: What about the Rate of kill (M. catarrhalis (−)) of the same substance?
A: >6Log

Q: And the Rate of kill (F. nucleatum (−))?
A: 3Log
